Experiments:
Assay type in all cases: cell-based
[1] = biological target: T1, TRPA1 (Rattus norvegicus, UniProt Q6RI86); experiment: whole-cell patch clamp in transfected HEK293 cells, […] fatty acid
[2] = biological target: TRPA1 (Mus musculus, UniProt Q8BLA8); experiment: whole-cell patch clamp of native TRPA1 in STC-1 cells (-60 mV)
Description: whole-cell patch clamp of native TRPA1 in STC-1 cells (-60 mV) on TRPA1 | Concentration-response curve for AITC evoked currents in STC-1 cells

[3] = biological target: T1, TRPA1; experiment: whole-cell patch clamp in transfected HEK293 cells (-60 mV), with NAC
[4] = biological target: T1, TRPA1; experiment: patch clamp of native TRPA1 in RIN14B cells, block of DHA current at […]

T1 sequence (Q6RI86 whole entry): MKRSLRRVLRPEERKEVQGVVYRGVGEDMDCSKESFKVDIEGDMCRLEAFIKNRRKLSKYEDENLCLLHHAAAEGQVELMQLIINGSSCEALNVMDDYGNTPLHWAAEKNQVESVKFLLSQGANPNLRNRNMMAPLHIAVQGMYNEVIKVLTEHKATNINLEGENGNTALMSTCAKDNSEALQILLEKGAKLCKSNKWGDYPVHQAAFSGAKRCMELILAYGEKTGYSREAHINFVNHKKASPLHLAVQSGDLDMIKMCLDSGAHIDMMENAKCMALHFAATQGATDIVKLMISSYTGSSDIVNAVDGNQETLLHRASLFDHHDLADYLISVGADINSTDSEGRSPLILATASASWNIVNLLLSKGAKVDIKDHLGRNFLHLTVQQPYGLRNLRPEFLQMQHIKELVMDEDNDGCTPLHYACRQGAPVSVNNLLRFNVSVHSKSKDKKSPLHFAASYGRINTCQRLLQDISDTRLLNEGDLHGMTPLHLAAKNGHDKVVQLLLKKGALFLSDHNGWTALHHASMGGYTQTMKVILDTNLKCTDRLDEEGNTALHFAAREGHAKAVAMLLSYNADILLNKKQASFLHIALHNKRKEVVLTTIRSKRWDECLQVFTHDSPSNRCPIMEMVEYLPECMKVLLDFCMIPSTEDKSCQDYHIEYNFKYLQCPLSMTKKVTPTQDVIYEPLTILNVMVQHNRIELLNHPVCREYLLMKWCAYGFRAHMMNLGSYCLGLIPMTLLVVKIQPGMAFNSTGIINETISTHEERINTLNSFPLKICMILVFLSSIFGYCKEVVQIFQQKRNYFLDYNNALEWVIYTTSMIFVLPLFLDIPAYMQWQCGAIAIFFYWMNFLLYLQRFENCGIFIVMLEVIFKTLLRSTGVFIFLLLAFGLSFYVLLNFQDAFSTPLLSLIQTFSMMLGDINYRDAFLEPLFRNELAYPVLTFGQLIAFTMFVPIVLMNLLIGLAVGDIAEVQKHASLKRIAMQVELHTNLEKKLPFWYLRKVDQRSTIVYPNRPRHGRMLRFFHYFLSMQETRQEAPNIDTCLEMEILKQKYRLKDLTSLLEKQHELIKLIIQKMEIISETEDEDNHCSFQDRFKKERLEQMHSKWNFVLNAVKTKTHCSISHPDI
TRPA1 (Mus musculus, UniProt Q8BLA8), sequence (Q8BLA8 whole entry): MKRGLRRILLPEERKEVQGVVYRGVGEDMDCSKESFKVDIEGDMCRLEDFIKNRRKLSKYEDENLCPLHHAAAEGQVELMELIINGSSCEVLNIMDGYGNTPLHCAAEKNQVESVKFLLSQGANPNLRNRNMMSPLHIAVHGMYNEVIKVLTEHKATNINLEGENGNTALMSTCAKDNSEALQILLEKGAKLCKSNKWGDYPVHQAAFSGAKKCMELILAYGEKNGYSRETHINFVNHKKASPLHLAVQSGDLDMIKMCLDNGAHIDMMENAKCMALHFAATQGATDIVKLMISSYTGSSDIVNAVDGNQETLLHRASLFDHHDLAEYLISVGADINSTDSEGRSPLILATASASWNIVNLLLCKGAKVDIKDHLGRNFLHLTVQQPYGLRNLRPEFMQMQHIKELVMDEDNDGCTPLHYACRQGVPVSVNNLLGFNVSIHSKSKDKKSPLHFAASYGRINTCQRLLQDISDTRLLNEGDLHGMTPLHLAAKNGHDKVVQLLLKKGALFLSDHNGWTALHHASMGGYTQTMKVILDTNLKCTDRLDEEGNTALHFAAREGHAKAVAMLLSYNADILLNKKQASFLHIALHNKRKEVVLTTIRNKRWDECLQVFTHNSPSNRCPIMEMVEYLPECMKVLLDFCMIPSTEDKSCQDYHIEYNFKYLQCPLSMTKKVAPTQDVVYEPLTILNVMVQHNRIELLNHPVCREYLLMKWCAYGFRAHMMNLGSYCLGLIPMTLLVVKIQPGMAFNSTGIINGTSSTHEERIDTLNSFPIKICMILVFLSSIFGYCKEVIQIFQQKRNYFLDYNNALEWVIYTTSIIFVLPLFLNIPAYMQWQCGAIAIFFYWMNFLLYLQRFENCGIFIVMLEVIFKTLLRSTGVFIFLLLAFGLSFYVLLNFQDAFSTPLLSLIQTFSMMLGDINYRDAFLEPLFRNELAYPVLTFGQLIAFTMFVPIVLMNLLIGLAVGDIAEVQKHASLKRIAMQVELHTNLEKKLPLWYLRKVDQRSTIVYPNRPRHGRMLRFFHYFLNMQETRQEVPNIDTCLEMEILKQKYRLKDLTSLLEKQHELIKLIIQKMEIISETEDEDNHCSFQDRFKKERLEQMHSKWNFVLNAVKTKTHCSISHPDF

**Q.** For `CCCCC/C=C\C/C=C\C/C=C\C/C=C\CCCC(=O)O` [AA, arachidonic acid], which “whole-cell patch clamp in transfected HEK293 cells, 100 μM fatty acid” value [1] is on record?
**A.** Thus, AA, EPA and DHA possess approximate equivalent efficacy.

**Q.** `C=CCN=C=S` [AITC, allyl isothiocyanate] was tested. Which EC50 [2] did it give?
**A.** 29 µM

**Q.** With `CC/C=C\C/C=C\C/C=C\C/C=C\C/C=C\C/C=C\CCC(=O)O` [DHA, docosahexaenoic acid] as the compound, how does the EC50 [3] read?
**A.** 41 µM

**Q.** Which “patch clamp of native TRPA1 in RIN14B cells, block of DHA current at 50 μM” value [4] does the source give for `CC(C)c1ccc(NC(=O)Cn2cnc3c2c(=O)n(C)c(=O)n3C)cc1` [HC030031] here?
**A.** outwardly-rectified conductance in voltage-clamped STC-1 and RIN14B cells, that is inhibited by the TRPA1 antagonist, HC030031

Reference: PMC3378573, “TRPA1 Is a Polyunsaturated Fatty Acid Sensor in Mammals” (PLoS ONE, 2012)
